≈ marks a conversion by molar mass, not a printed value.
Experiments:
[1] = target: T1, Retinoic acid receptor RXR-beta (Homo sapiens, UniProt P28702); assay: Agonist activity at full length human RXR beta expressed in HEK293T cells measured after 16 hrs by Dual-glo luciferase assay; type: cell-based
T1 sequence (P28702 whole entry): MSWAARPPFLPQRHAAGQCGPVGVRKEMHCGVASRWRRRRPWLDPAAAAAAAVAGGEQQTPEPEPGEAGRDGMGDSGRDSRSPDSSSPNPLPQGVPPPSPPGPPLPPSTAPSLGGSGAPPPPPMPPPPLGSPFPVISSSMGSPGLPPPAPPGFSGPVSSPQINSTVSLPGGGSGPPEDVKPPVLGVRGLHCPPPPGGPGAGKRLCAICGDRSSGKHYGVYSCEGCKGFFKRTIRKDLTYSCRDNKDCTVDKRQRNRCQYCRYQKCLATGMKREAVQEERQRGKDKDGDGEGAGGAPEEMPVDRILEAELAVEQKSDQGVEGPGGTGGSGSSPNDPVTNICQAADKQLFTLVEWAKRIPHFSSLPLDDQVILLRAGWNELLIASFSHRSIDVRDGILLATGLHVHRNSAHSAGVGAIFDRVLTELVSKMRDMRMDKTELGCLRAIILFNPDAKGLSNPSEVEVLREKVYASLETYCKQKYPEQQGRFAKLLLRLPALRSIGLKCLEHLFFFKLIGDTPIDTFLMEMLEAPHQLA

[2] = target: T2, Retinoic acid receptor RXR-alpha (Homo sapiens, UniProt P19793)
T2 sequence (P19793 whole entry): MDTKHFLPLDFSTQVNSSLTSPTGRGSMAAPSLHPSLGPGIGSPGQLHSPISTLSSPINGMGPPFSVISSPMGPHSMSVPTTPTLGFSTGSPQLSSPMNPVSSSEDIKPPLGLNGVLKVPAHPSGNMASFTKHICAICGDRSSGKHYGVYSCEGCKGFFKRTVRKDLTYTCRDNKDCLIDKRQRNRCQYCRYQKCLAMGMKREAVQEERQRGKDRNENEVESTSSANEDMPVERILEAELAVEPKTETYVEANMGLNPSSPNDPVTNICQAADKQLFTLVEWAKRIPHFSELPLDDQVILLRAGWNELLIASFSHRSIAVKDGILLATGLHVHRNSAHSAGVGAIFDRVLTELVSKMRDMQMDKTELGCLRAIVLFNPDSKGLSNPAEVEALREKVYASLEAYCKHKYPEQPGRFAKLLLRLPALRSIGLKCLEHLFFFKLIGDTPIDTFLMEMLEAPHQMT
Description: Agonist activity at full length human RXR alpha expressed in HEK293T cells measured after 16 hrs by Dual-glo luciferase assay

[3] = Thermodynamic aqueous solubility of compound at 24 degreeC measured after 24 hrs by SpectraMax M5e plate reader analysis; type: physicochemical; conditions: aqueous medium, read-out: Therm_solubility
[4] = target: T3, Nuclear receptor subfamily 1 group I member 3 (Homo sapiens, UniProt Q14994); assay: Inverse agonist activity at NR1I3 (unknown origin) at 1 uM
T3 sequence (Q14994 whole entry): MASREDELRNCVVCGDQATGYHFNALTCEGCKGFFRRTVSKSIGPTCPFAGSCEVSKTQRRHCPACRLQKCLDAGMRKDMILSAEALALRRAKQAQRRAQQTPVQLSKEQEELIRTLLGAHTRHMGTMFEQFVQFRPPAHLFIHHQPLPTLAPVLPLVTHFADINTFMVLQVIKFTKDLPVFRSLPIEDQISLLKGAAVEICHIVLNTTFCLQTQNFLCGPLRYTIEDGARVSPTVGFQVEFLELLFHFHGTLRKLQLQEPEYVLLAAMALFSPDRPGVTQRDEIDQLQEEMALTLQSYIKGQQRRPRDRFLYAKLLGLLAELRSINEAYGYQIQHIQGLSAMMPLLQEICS

[5] = Microsomal stability in Sprague-Dawley rat liver microsomes assessed as compound remaining at 10 uM measured auto 60 mins in presence of NADPH by HPLC-UV method; type: ADME, Microsome; conditions: read-out: Stability
[6] = target: T3, Nuclear receptor subfamily 1 group I member 3; assay: Agonist activity at NR1I3 (unknown origin) at 1 uM
[7] = Microsomal stability in Sprague-Dawley rat liver microsomes assessed as half life at 10 uM in presence of NADPH by HPLC-UV method; type: ADME, Microsome
COS-7 = assay: Cytotoxicity against green monkey COS-7 cells assessed as inhibition of cell growth at upto 30 uM measured after 24 hrs CCK-8 method; type: toxicity, cell-based; conditions: chlorocebus aethiops, cos-7, 24 h
[8] = target: T3, Nuclear receptor subfamily 1 group I member 3; assay: Antagonist activity at NR1I3 (unknown origin) at 1 uM
[9] = target: T4, Retinoic acid receptor RXR-gamma (Homo sapiens, UniProt P48443); assay: Agonist activity at full length human RXR gamma expressed in HEK293T cells measured after 16 hrs by Dual-glo luciferase assay; type: cell-based
T4 sequence (P48443 whole entry): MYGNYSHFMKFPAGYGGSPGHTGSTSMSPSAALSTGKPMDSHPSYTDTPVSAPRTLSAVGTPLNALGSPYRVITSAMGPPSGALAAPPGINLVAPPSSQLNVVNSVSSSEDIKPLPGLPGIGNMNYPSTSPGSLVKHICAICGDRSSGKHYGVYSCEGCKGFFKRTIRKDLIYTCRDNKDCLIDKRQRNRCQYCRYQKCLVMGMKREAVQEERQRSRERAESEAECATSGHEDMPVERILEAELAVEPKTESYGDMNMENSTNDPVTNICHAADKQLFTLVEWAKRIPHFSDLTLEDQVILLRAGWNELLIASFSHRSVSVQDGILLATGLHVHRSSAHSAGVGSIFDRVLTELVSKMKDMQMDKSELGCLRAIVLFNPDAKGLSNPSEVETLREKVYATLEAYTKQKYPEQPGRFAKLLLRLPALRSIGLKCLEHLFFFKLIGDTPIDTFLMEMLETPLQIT

## C/C(C(=O)O)=C(/C)c1nc(-c2ccccc2)c(-c2ccccc2)o1
[1]
  EC50: 1.9 µM

## C/C(=C\C(=O)O)c1nc(-c2ccccc2)c(-c2ccccc2)o1
[1]
  EC50: 7.4 µM

## O=C(O)/C=C/c1nc(-c2ccccc2)c(-c2ccccc2)o1
[2]
  EC50: 13 µM
[1]
  EC50: 13.1 µM

## O=C(O)[C@@H]1C[C@H]1c1nc(-c2ccccc2)c(-c2cc(C(F)(F)F)cc(C(F)(F)F)c2)o1 (racemic)
[3]
  solubility thermodynamic at 24 h: 18.3 µM (≈ 8.08 µg/mL)
[4]
  Activity: Not Active
[5]
  remaining at 1 h, 10 µM: 79%
[6]
  Activity: Not Active
[7]
  half-life at 10 µM: > 2 h
COS-7
  Activity: Non-Toxic
[8]
  Activity: Not Active

## O=C(O)/C=C/c1nc(-c2ccccc2)c(-c2cc(C(F)(F)F)cc(C(F)(F)F)c2)o1
[9]
  EC50: 0.057 µM

## OC[C@@H]1C[C@H]1c1nc(-c2ccccc2)c(-c2cc(C(F)(F)F)cc(C(F)(F)F)c2)o1 (racemic)
[3]
  solubility thermodynamic at 24 h: 5.8 µM (≈ 2.48 µg/mL)

— ChEMBL document CHEMBL5375987, “Structural Fusion of Natural and Synthetic Ligand Features Boosts RXR Agonist Potency” (J Med Chem, 2023)
